From patent US20080175902A1, “Methods for slowing the progression of multiple sclerosis” (University of Plymouth, priority 2006, published 2008)

Experiments:
[1] = test system: patients with multiple sclerosis; experiment: Patient assessment of treatment benefit at visit 8; format: in vivo, human; settings: patient assessment at visit 8
Source text: At visit 8 in the study described in Examples 1 and 2, patients were asked uestions about whether treatment had improved pain, tremor, spasticity, or ymptoms. […] Overall, more patients perceived an improvement in spasticity and pain when taking the active treatments than when taking placebo. Difference in perception of improvement in tremor was not statistically significant and no treatment effect on bladder symptoms was identified. Although there was no stratification for these specific symptoms between groups, the groups were broadly balanced for these symptoms apart from bladder symptoms, where there were fewer patients with urinary symptoms in the group taking, delta-9-THC.

[2] = test system: patients with multiple sclerosis; experiment: Serious adverse events (hospital admissions), 52 week follow up; format: in vivo, human
Source text: During this study, all hospital admissions were classed as serious adverse events.

[3] = test system: patients with multiple sclerosis; experiment: Adverse events reported by patients, 15 week study
[4] = test system: patients with multiple sclerosis; experiment: Ashworth score, 52 week follow up; format: in vivo, human
Source text: In Example 4, the study described in Examples 1-3 above was continued to determine if long-term therapy with D9-TCH or cannabis plant extract would affect the progression of MS. At the end of week 15, patients were offered the opportunity to resume medication at the previously determined dose for a maximum of 52 weeks. If patients decided not to continue medication, the reasons for non-continuance were documented. Throughout the study, capsule compliance was checked at clinic visits by counting the number of capsules returned. Urine samples for cannabinoid analysis were collected at each clinic visit during the follow up phase in order to evaluate potential cannabis use in the placebo group.
(§1) In order to reduce the potential for unmasking bias from treatment side effects, two study personnel were used at each centre. A treating physician monitored the dosage, side effects, and patient wellbeing, while an assessor (usually a physiotherapist) measured the Ashworth score, timed 10 metre walk, and Rivermead Mobility Index (RMI). […] Assessors remained blinded to any discussion of dosage or side effects, and when evaluating patients' spasticity, were instructed not to have access to their assessment scores from previous visits. Self completion booklets containing the General Health Questionnaire-30 (GHQ-30), category rating scales (asking patients to assess any change in their symptoms at that point in the study compared with how they were before they started medication, and measuring irritability, depression, tiredness, muscle stiffness, tremor, pain, sleep, muscle spasms, and energy levels), the UK Neurological Disability Scale (UKNDS), and the Barthel Index (BI) were sent to participants just prior to week 27 and week 52. The Expanded Disability Status Scale (EDSS) was used at week 52.
As set forth in FIG. 5, 95% Confidence intervals for differences in means (active minus placebo) of changes in total Ashworth score at each visit are shown. […] For these patients, their last Ashworth score (visit 10) was carried forward as their final measured response. […]

[5] = test system: patients with multiple sclerosis; experiment: Category rating scales, 52 week follow up; format: in vivo, human; settings: category rating scale, 52 week follow up study
Source text: as §1
Times taken to complete a 10 metre walk were analysed using the Kruskal-Wallis test, and non-parametric methods were used to produce confidence intervals for the median. The RMI, UKNDS, postal BI, and GHQ-30 were each analysed using non-parametric analysis of variance to compare the groups. EDSS scores were analysed using Fisher's exact test. Category rating scales were analysed using contingency table analysis. Comparison was made between patients choosing to continue on medication and those who chose to discontinue, by baseline Ashworth scores, RMI, EDSS, age, weight, ambulatory status, type of disease, sex, and use of urinary catheter. No adjustments were made for multiple comparisons.

## CCCCCc1cc(O)c2c(c1)OC(C)(C)[C@@H]1CCC(C)=C[C@@H]21 (relative stereo) [delta-9-THC, Delta-9-Tetrahydrocannabinol]
[1]
  Pain improvement: No, % of patients: 50%
  Pain improvement: No, number of patients: 64
  Pain improvement: Yes, % of patients: 50%
  Pain improvement: Yes, number of patients: 64
  Spasticity improvement: No, % of patients: 40%
  Spasticity improvement: No, number of patients: 73
  Spasticity improvement: Yes, % of patients: 60%
  Spasticity improvement: Yes, number of patients: 108
  Tremor improvement: No, % of patients: 60%
  Tremor improvement: No, number of patients: 67
  Tremor improvement: Yes, % of patients: 40%
  Tremor improvement: Yes, number of patients: 44
[2]; 52 week follow up, all hospital admissions
  serious adverse events reported (total number): 24
[2]; CM
  Serious adverse event: Insertion of baclofen pump (frequency): 0
  Serious adverse event: Limb fracture (frequency): 0
  Serious adverse event: Other (frequency): 8
  Serious adverse event: Pneumonia/chest infection (frequency): 1
  Serious adverse event: Relapse/possible relapse (frequency): 8
  Serious adverse event: Seizure (frequency): 0
  Serious adverse event: Urinary tract infection (frequency): 3
  Serious adverse events: No. of events: 20
  Serious adverse events: no. of patients: 18
[2]; DM
  Serious adverse event: Insertion of baclofen pump (frequency): 0
  Serious adverse event: Limb fracture (frequency): 0
  Serious adverse event: Other (frequency): 2
  Serious adverse event: Pneumonia/chest infection (frequency): 0
  Serious adverse event: Relapse/possible relapse (frequency): 2
  Serious adverse event: Seizure (frequency): 0
  Serious adverse event: Urinary tract infection (frequency): 0
  Serious adverse events: No. of events: 4 (4)
  Serious adverse events: no. of patients: 4 (4)
[3]
  Adverse event: Blocked/insertion of suprapubic catheter (number): 0
  Adverse event: Constipation (number): 0
  Adverse event: Grand mal seizure (number): 0
  Adverse event: MS relapse or possible relapse (number): 1
  Adverse event: Other (number): 11
  Adverse event: Pneumonia (number): 2
  Adverse event: Urinary tract infection (number): 3
[4]; 52 week follow up
  Mean (SD) difference in Ashworth scores from baseline to end of study: 1.82 (8.12)
  improvement on the Ashworth scale from a baseline mean of around 22: approximately 2 points
[4]; end of the 52 week treatment period
  effect on progression of MS (spasticity and disability): profound effects in slowing the progression of MS
[5]
  Depression: Deterioration, %: 17 (17) %
  Depression: Improvement, %: 26%
  Depression: Same, %: 57%
  Energy: Deterioration, %: 20%
  Energy: Improvement, %: 24%
  Energy: Same, %: 56%
  Irritability: Deterioration, %: 15 (15) %
  Irritability: Improvement, %: 30%
  Irritability: Same, %: 55%
  Pain: Deterioration, %: 16%
  Pain: Improvement, %: 28%
  Pain: Same, %: 56%
  Shaking: Deterioration, %: 19 (19) %
  Shaking: Improvement, %: 26%
  Shaking: Same, %: 55%
  Sleep: Deterioration, %: 12%
  Sleep: Improvement, %: 34%
  Sleep: Same, %: 54%
  Spasms: Deterioration, %: 25%
  Spasms: Improvement, %: 29%
  Spasms: Same, %: 46%
  Spasticity: Deterioration, %: 33%
  Spasticity: Improvement, %: 33%
  Spasticity: Same, %: 34%
  Tiredness: Deterioration, %: 21%
  Tiredness: Improvement, %: 25%
  Tiredness: Same, %: 54%
